Legend:
[1] = system: A7r5 cells derived from the aorta of a rat; test: Inhibition of serum-stimulated proliferation of vascular smooth muscle cells, acid phosphatase activity; assay type: cell-based; conditions: 48 hours after 2% FBS stimulation, n = 3, mean ± SD; for Acid Phosphatase Activity Absorbance (OD405): control 0.867 ± 0.089; for activity at 10 µM / activity at 100 µM / activity at 30 µM: Rattus norvegicus, A7R5, control 100 ± 10
Experimental: In order to assess the inhibitory effect of the compounds of the present invention on serum-stimulated proliferation of vascular smooth muscle cells in vitro, the compounds of Examples 1, 4, 20, 22, 27, 31, 36, 50, 52, and 58 were tested using A7r5 cells derived from the aorta of a rat (ATCC-CRL-1444).
Using DMEM medium containing 10% FBS, the cells were placed on 96-well microtiter plates with 5×10^3 cells/0.2 ml/ well and then incubated. The medium was exchanged for 2% FBS-containing DMEM medium on the third day and then for 0.2% FBS-containing DMEM medium on the fourth day from the start of the incubation. After 24-hour incubation in the 0.2% FBS-containing DMEM medium, the test compound was added. Each of the test compounds were added to the wells in the form of a solution or suspension in ethanol in an amount of 1 μl/well to final compound concentrations indicated in Table 3 below and the resultant ethanol concentration of 0.5% in each well. After additional 24-hour incubation, the medium was removed, and 0.2 ml of DMEM medium and the test compound were added thereto again, and the cells were stimulated by serum (2% FBS). Forty-eight hours after the stimulation, the acid phosphatase activity in the wells was measured by means of a kit (Abacus Cell Proliferation Kit, available from Clontech Lab. Inc. CA, U.S.A.) and evaluated as an indication of cell proliferation.

[2] = system: rabbit balloon injury models; test: In vivo effect in intimal thickening model (2), rabbit balloon injury; conditions: cholesterol-fed rabbits, 15-week-old, 200 mg/kg oral once a day, four weeks after balloon treatment, mean ± SD
Experimental: In order to assess the inhibitory effect of the compound of the present invention on intimal thickening in vivo, the compound of Example 36 was tested using rabbit balloon injury models that were different from those used in Test Example 4 in week-age. Further, the effect was compared with that of Probucol which was reported to have an inhibitory effect on intimal thickening in balloon injury models (see Proc. Natl. Acad. Sci., U.S.A., 89, pp 11312-11316 (1992)).
Cholesterol-fed rabbits in groups of seven (JW: CSK male, 15-week-old) were used to prepare rabbit balloon injury models. Briefly, rabbits were fed with a high cholesterol diet (cholesterol content: 1%) for 2 weeks before balloon treatment. The animals were balloon-treated with a balloon catheter (4 French, available from Baxter) under anesthesia to peel the aortic intima 5 times. The animals were orally administered with the compound which was suspended in a 1% CMC solution (200 mg/kg). On the other hand, control animals were orally administered with a 1% CMC solution without the compound. The administrations were performed once a day from 1 week before the balloon treatment until the day before the dissection for evaluation. In order to evaluate the degree of balloon injury, a balloon-nontreated group (3 animals) was prepared.
After four weeks from the balloon treatment, specimens were taken from the aorta, stained with Elastica van Geison, and analyzed under an optical microscope. The image was processed to measure the thickness and area of the thickened intima. Averages of the thickness and area were obtained for each individual animal. The animals which died after the operation and those having a serum cholesterol level of 3500 mg/dl or higher were excluded from the measurement. The number of animals used for the evaluation was 4 or 5 per group.

[3] = system: A7r5 cells derived from the aorta of a rat; test: Inhibition of serum- or PDGF-stimulated proliferation of vascular smooth muscle cells, [3H]-thymidine uptake; assay type: cell-based; conditions: uptake in 5 hours, n = 3, mean ± SD; for Count by Liquid Scintillation Counter, FBS Stimulation ([3H]-thymidine uptake): 2% FBS, control 42789 ± 1063; for Count by Liquid Scintillation Counter, PDGF Stimulation ([3H]-thymidine uptake): PDGF-BB 4 ng/ml, control 24517 ± 2370
Experimental: In order to assess the inhibitory effect of a compound of the present invention on serum- or PDGF-stimulated proliferation of vascular smooth muscle cells in vitro, the compound obtained in Example 36 was tested using A7r5 cells derived from the aorta of a rat (ATCC-CRL-1444). Further, the effect was compared with that of α-tocopherol which was reported to have an inhibitory effect on proliferation of vascular smooth muscle cells (see J. Biol. Chem., 266, pp. 6188-6194 (1991)).
Using DMEM medium containing 10% FBS, the cells were placed on 96-well microtiter plates with 5×10^3 cells/0.2 ml/well and then incubated. The medium was exchanged for 2% FBS-containing DMEM medium on the third day and then for 0.2% FBS-containing DMEM medium on the fourth day from the start of the incubation. After 48-hour incubation in the 0.2% FBS-containing DMEM medium, the medium was removed, 0.2 ml of DMEM medium and the test compound were added, and the cells were stimulated with serum (2% FBS) or PDGF (PDGF-BB: human origin, available from Becton Dickinson Labware) (4 ng/ml) to proliferate. The test compound was added to the wells in the form of a solution or suspension in ethanol in amount of 1 μl well to final compound concentrations indicated in Table 2 below and the resultant ethanol concentration of 0.5% in each well. Eight hours after the stimulation, hydroxyurea was added to a final concentration of 1.5 mM to synchronize the cell cycle strictly. After additional 14-hour incubation, the medium containing hydroxyurea was removed and the cells were washed, and DMEM medium, the test compound and the proliferation stimulator were added thereto again. Further, [^3H]-thymidine (1 μCi/well; […]; available from NEN Research) was added. The [^3H]-thymidine uptake in 5 hours was measured as an indication of cell proliferation.

Compound | Acid Phosphatase Activity Absorbance (OD405) ([1]; 10 μM) | activity at 10 µM ([1]; 10 μM) | Acid Phosphatase Activity Absorbance (OD405) ([1]; 30 μM) | activity at 30 µM ([1]; 30 μM) | other results
CC(C)(C)c1cc2c(c(C(C)(C)C)c1O)CCO2 [Example 1, 4,6-Di-t-butyl-5-hydroxy-2,3-dihydrobenzofuran] | 0.727 ± 0.032 | 84 ± 4% |  |  | Acid Phosphatase Activity Absorbance (OD405) ([1]; 100 μM): 0.288 ± 0.073; activity at 100 µM ([1]; 100 μM): 33 ± 8%
CC1(C)Cc2c(cc(C(C)(C)C)c(O)c2C(C)(C)C)O1 [Example 4, 4,6-Di-t-butyl-5-hydroxy-2,2-dimethyl-2,3-dihydrobenzofuran] | 0.606 ± 0.020 | 70 ± 2% | 0.062 ± 0.026 | 7 ± 3% | 
CC(C)(C)c1cc2c(c(C(C)(C)C)c1O)CC1(CCCCCC1)O2 [Example 20, 4,6-Di-t-butyl-5-hydroxy-2,3-dihydrobenzofuran-2-spiro-1′-cycloheptane] | 0.472 ± 0.031 | 54 ± 4% | 0.105 ± 0.027 | 12 ± 3% | 
CC(C)(C)c1cc2c(c(C(C)(C)C)c1O)CC1(CCOCC1)O2 [Example 22, 4,6-Di-t-butyl-5-hydroxy-2,3-dihydrobenzofuran-2-spiro-4′-tetrahydropyran] | 0.875 ± 0.013 | 101 ± 1% |  |  | Acid Phosphatase Activity Absorbance (OD405) ([1]; 100 μM): 0.777 ± 0.062; activity at 100 µM ([1]; 100 μM): 90 ± 7%
CC(C)(C)c1cc2occc2c(C(C)(C)C)c1O [Example 27, 4,6-Di-t-butyl-5-hydroxybenzofuran] | 0.553 ± 0.033 | 64 ± 4% | 0.225 ± 0.064 | 26 ± 7% | 
CCCOc1cc(C(C)(C)C)c(O)c(C(C)(C)C)c1C [Example 31, 2,6-Di-t-butyl-3-methyl-4-propyloxyphenol] | 0.756 ± 0.025 | 87 ± 3% |  |  | Acid Phosphatase Activity Absorbance (OD405) ([1]; 100 μM): 0.600 ± 0.102; activity at 100 µM ([1]; 100 μM): 69 ± 12%
CC1(CO)Cc2c(cc(C(C)(C)C)c(O)c2C(C)(C)C)O1 (stereo not shown) [Example 48, 4,6-Di-t-butyl-5-hydroxy-2-hydroxymethyl-2-methyl-2,3-dihydrobenzofuran] |  |  |  |  | melting point: 126 to 128 °C
CCCCCC1(CCCCC)Cc2c(cc(C(C)(C)C)c(O)c2C(C)(C)C)S1 [Example 50, 4,6-Di-t-butyl-5-hydroxy-2,2-di-n-pentyl-2,3-dihydrobenzothiophene] | 0.699 ± 0.131 | 81 ± 15% | 0.146 ± 0.026 | 17 ± 3% | 
CC1(C)Cc2c(cc(C(C)(C)C)c(O)c2C(C)(C)C)S1 [Example 52, 4,6-Di-t-butyl-5-hydroxy-2,2-dimethyl-2,3-dihydrobenzothiophene] | 0.690 ± 0.071 | 80 ± 8% | 0.043 ± 0.008 | 5 ± 1% | 
CC(C)(C)c1cc2c(c(C(C)(C)C)c1O)CC1(CCCCC1)S2 [Example 58, 4,6-Di-t-butyl-5-hydroxy-2,3-dihydrobenzothiophene-2-spiro-1′-cyclohexane] | 0.417 ± 0.125 | 48 ± 14% | 0.045 ± 0.006 | 5 ± 1% | 
CC(C)(Sc1cc(C(C)(C)C)c(O)c(C(C)(C)C)c1)Sc1cc(C(C)(C)C)c(O)c(C(C)(C)C)c1 [Probucol, reference compound] |  |  |  |  | Area of Intima ([2]; control 1.32 ± 0.22): 0.97 ± 0.28 mm²; Thickness of Intima ([2]; control 119 ± 19): 92 ± 17 μm
Cc1c(C)c2c(c(C)c1O)CC[C@@](C)(CCC[C@H](C)CCC[C@H](C)CCCC(C)C)O2 [α-Tocopherol, α-tocopherol, reference compound] |  |  |  |  | Count by Liquid Scintillation Counter, FBS Stimulation ([3H]-thymidine uptake) ([3]; 30 μM): 28058 ± 3912 CPM; Count by Liquid Scintillation Counter, PDGF Stimulation ([3H]-thymidine uptake) ([3]; 30 μM): 12493 ± 2978 CPM; Count by Liquid Scintillation Counter, FBS Stimulation ([3H]-thymidine uptake) ([3]; 100 μM): 25706 ± 4160 CPM; Count by Liquid Scintillation Counter, PDGF Stimulation ([3H]-thymidine uptake) ([3]; 100 μM): 12159 ± 2362 CPM

— patent publication US6440999B1, “Intimal thickening inhibitory agent” (Chugai Seiyaku Kabushiki Kaisha, priority 1995, dated 2002)
